Measured values from patent publication US10479780B2, “Aminopyrazole derivatives” (Chugai Seiyaku Kabushiki Kaisha, priority 2015, dated 2019).

Legend:
Type in all cases: biochemical
human Yes1 enzyme = biological target: T1, human Yes1 enzyme (Homo sapiens, UniProt P07947); test: Yes1 enzyme inhibitory activity (time-resolved fluorometry, biotinylated peptide phosphorylation); conditions: read-out: YES_IC50
T1 construct: made in house
Procedure, shortened: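 Inhibition was expressed against a compound-free control to give IC50, using TR-FRET read-out (Eu-cryptate anti-pTyr antibody, streptavidin-XL665).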

human Lck enzyme = biological target: T2, human Lck enzyme (Homo sapiens, UniProt P06239); test: Lck enzyme inhibitory activity (time-resolved fluorometry, biotinylated peptide phosphorylation); conditions: read-out: LCK_IC50
T2 construct: purchased Carna Biosciences, Inc. 08-170
T2 sequence (P06239 whole entry): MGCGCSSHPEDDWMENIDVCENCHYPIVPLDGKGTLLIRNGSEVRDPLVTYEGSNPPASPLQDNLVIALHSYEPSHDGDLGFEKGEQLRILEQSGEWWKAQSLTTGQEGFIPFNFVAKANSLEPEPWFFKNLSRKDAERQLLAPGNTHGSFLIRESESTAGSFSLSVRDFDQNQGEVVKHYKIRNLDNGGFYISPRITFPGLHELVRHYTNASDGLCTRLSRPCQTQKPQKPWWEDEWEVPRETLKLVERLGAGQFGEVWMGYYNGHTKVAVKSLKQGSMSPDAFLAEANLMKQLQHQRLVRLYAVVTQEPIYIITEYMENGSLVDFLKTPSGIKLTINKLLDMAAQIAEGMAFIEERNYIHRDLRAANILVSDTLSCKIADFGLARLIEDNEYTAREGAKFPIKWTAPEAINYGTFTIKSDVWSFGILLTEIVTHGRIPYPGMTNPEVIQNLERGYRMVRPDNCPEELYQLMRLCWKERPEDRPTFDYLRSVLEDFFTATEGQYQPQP
Procedure, shortened: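 Readout pairs a europium cryptate-labelled anti-phosphotyrosine antibody with XL665-streptavidin, measured by time-resolved fluorescence. IC50 derived from percent inhibition against untreated controls.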

human Src enzyme = biological target: T3, human Src enzyme (Homo sapiens, UniProt P12931); test: Src enzyme inhibitory activity (time-resolved fluorometry, biotinylated peptide phosphorylation); conditions: read-out: SRC_IC50
T3 construct: purchased Carna Biosciences, Inc. 08-173
T3 sequence (P12931 whole entry): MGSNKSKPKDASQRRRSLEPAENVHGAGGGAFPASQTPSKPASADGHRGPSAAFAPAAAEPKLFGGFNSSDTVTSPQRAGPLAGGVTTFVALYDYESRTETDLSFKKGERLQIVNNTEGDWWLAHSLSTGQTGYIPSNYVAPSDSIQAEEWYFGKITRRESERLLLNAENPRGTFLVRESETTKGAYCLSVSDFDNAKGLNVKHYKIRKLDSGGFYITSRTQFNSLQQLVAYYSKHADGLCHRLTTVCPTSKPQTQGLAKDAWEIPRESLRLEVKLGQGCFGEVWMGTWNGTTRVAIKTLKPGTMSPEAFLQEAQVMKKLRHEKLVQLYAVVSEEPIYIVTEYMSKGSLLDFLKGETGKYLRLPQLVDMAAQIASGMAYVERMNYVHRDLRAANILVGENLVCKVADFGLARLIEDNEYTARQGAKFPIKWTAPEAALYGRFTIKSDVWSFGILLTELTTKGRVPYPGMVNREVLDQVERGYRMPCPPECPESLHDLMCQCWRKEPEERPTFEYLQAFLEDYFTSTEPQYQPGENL
Procedure, shortened: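 Compounds were tested for blocking tyrosine phosphorylation of a biotinylated peptide substrate by recombinant human Src. Phosphorylated product was quantified by time-resolved fluorometry using europium cryptate and XL665 conjugates, and IC50 was calculated against the compound-free control.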

T1 sequence (P07947 whole entry): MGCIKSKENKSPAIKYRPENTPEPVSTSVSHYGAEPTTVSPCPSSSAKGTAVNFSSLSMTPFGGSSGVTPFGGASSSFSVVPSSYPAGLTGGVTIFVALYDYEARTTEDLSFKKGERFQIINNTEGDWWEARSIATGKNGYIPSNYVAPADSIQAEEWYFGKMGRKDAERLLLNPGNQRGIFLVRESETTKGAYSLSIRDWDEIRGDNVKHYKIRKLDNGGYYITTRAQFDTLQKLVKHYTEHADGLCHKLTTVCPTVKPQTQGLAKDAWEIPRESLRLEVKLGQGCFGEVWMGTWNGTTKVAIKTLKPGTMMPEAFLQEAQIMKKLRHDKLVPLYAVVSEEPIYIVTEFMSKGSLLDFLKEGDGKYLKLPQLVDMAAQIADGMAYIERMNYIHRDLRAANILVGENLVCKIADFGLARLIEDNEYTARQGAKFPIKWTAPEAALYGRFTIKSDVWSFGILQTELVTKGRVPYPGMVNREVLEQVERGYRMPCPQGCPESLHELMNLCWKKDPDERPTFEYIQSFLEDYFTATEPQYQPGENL

SMILES | IC50 (human Yes1 enzyme) [nM] | IC50 (human Lck enzyme) [nM] | IC50 (human Src enzyme) [nM]
Cc1cc(Oc2c(F)cccc2F)ncc1-n1ncc(C(=O)c2cc3cc(OCC(F)F)c(NS(=O)(=O)c4ccc(Cl)cc4)cc3[nH]2)c1N [Example 5-1-298, N-[2-[5-amino-1-[6-(2,6-difluorophenoxy)-4-methylpyridin-3-yl]pyrazole-4-carbonyl]-5-(2,2-difluoroethoxy)-1H-indol-6-yl]-4-chlorobenzenesulfonamide] | 8.9 | 93 | 630
Cc1ccc(S(=O)(=O)Nc2cc3[nH]c(C(=O)c4cnn(-c5cnc(Oc6c(F)cccc6F)cc5C)c4N)cc3cc2OCC(F)F)cc1 [Example 5-1-300, N-[2-[5-amino-1-[6-(2,6-difluorophenoxy)-4-methylpyridin-3-yl]pyrazole-4-carbonyl]-5-(2,2-difluoroethoxy)-1H-indol-6-yl]-4-methylbenzenesulfonamide] | 9.5 | 140 | 730
Cc1cc(Oc2ccccc2F)ccc1-n1ncc(C(=O)c2cc3cc(F)c(N4CC(C)(C)NS4(=O)=O)cc3[nH]2)c1N [Example 5-1-302, (5-amino-1-(4-(2-fluorophenoxy)-2-methylphenyl)-1H-pyrazol-4-yl)(6-(4,4-dimethyl-1,1-dioxido-1,2,5-thiadiazolidin-2-yl)-5-fluoro-1H-indol-2-yl)methanone] | 1.9 | 22 | 50
Cc1cc(Oc2c(F)cccc2F)ncc1-n1ncc(C(=O)c2cc3cc(C(C)C)c(NS(=O)(=O)N4C5CCC4COC5)cc3[nH]2)c1N [Example 5-1-303, N-[2-[5-amino-1-[6-(2,6-difluorophenoxy)-4-methylpyridin-3-yl]pyrazole-4-carbonyl]-5-propan-2-yl-1H-indol-6-yl]-3-oxa-8-azabicyclo [3.2.1]octane-8-sulfonamide] | 27 | 320 | 1500
Cc1cc(Oc2c(F)cccc2F)ncc1-n1ncc(C(=O)c2cc3cc(C(C)C)c(NS(=O)(=O)C4CCCCC4)cc3[nH]2)c1N [Example 5-1-304, N-[2-[5-amino-1-[6-(2,6-difluorophenoxy)-4-methylpyridin-3-yl]pyrazole-4-carbonyl]-5-propan-2-yl-1H-indol-6-yl] cyclohexanesulfonamide] | 32 | 400 | 1300
Cc1cc(Oc2c(F)cccc2F)ncc1-n1ncc(C(=O)c2cc3cc(C(C)C)c(NS(=O)(=O)C4CCCC4)cc3[nH]2)c1N [Example 5-1-306, N-[2-[5-amino-1-[6-(2,6-difluorophenoxy)-4-methylpyridin-3-yl]pyrazole-4-carbonyl]-5-propan-2-yl-1H-indol-6-yl] cyclopentanesulfonamide] | 23 | 150 | 630
Cc1cc(-n2ncc(C(=O)c3cc4cc(OC5CCN(C6CS(=O)(=O)C6)CC5)c(-c5ccccc5F)cc4[nH]3)c2N)ccc1Oc1ccccc1F [Example 5-1-309, [5-amino-1-[4-(2-fluorophenoxy)-3-methylphenyl]pyrazol-4-yl]-[5-[1-(1,1-dioxothietan-3-yl)piperidin-4-yl]oxy-6-(2-fluorophenyl)-1H-indol-2-yl]methanone] | 12 | 410 | 3600
Cc1cc(Oc2c(F)cccc2F)ncc1-n1ncc(C(=O)c2cc3cc(OC4CCN(C5CCCC5)CC4)c(-c4ccccc4F)cc3[nH]2)c1N [Example 5-1-310, [5-amino-1-[6-(2,6-difluorophenoxy)-4-methylpyridin-3-yl]pyrazol-4-yl]-[5-(1-cyclopentylpiperidin-4-yl)oxy-6-(2-fluorophenyl)-1H-indol-2-yl]methanone] | 3.4 | 22 | 38
Cc1cc(Oc2c(F)cccc2F)ncc1-n1ncc(C(=O)c2cc3cc(F)c(N4C(=O)NC5(CCC5)C4=O)cc3[nH]2)c1N [Example 5-1-312, 7-[2-[5-amino-1-[6-(2,6-difluorophenoxy)-4-methylpyridin-3-yl]pyrazole-4-carbonyl]-5-fluoro-1H-indol-6-yl]-5,7-diazaspiro[3.4]octane-6,8-dione] | 3.5 | 10 | 160
Cc1cc2cc(C(=O)c3cnn(-c4cnc(Oc5c(F)cccc5F)cc4C)c3N)[nH]c2cc1N1C(=O)NC2(CCCCC2)C1=O [Example 5-1-316, 3-[2-[5-amino-1-[6-(2,6-difluorophenoxy)-4-methylpyridin-3-yl]pyrazole-4-carbonyl]-5-methyl-1H-indol-6-yl]-1,3-diazaspiro[4.5] decane-2,4-dione] | 6.2 | 29 | 170
Cc1cc2cc(C(=O)c3cnn(-c4cnc(Oc5c(F)cccc5F)cc4C)c3N)[nH]c2cc1NS(=O)(=O)C1CCCC1 [Example 5-1-317, N-[2-[5-amino-1-[6-(2,6-difluorophenoxy)-4-methylpyridin-3-yl]pyrazole-4-carbonyl]-5-methyl-1H-indol-6-yl]cyclopentanesulfonamide] | 16 | 110 | 500
Cc1cc(Oc2c(F)cccc2F)ncc1-n1ncc(C(=O)c2cc3cc(OCC(F)F)c(NS(=O)(=O)C4CCCC4)cc3[nH]2)c1N [Example 5-1-318, N-[2-[5-amino-1-[6-(2,6-difluorophenoxy)-4-methylpyridin-3-yl]pyrazole-4-carbonyl]-5-(2,2-difluoroethoxy)-1H-indol-6-yl] cyclopentanesulfonamide] | 10 | 120 | 350

Further compounds by falling IC50 (human Yes1 enzyme), results first:

IC50 (human Yes1 enzyme) [nM] | IC50 (human Lck enzyme) [nM] | IC50 (human Src enzyme) [nM] | SMILES
9.8 | 84 | 380 | Cc1cc(Oc2c(F)cccc2F)ncc1-n1ncc(C(=O)c2cc3cc(C(C)C)c(NS(=O)(=O)CCCF)cc3[nH]2)c1N [Example 5-1-305, N-[2-[5-amino-1-[6-(2,6-difluorophenoxy)-4-methylpyridin-3-yl]pyrazole-4-carbonyl]-5-propan-2-yl-1H-indol-6-yl]-3-fluoropropane-1-sulfonamide]
9.7 | 120 | 610 | COc1ccc(S(=O)(=O)Nc2cc3[nH]c(C(=O)c4cnn(-c5cnc(Oc6c(F)cccc6F)cc5C)c4N)cc3cc2OCC(F)F)cc1 [Example 5-1-299, N-[2-[5-amino-1-[6-(2,6-difluorophenoxy)-4-methylpyridin-3-yl]pyrazole-4-carbonyl]-5-(2,2-difluoroethoxy)-1H-indol-6-yl]-4-methoxybenzenesulfonamide]
9.6 | 150 | 480 | Cc1cc2cc(C(=O)c3cnn(-c4cnc(Oc5c(F)cccc5F)cc4C)c3N)[nH]c2cc1NS(=O)(=O)C1CCCCC1 [Example 5-1-314, N-[2-[5-amino-1-[6-(2,6-difluorophenoxy)-4-methylpyridin-3-yl]pyrazole-4-carbonyl]-5-methyl-1H-indol-6-yl]cyclohexanesulfonamide]
8.5 | 46 | 580 | Cc1cc(Oc2c(F)cccc2F)ncc1-n1ncc(C(=O)c2cc3cc(OCC(F)F)c(NS(=O)(=O)c4ccc(F)cc4)cc3[nH]2)c1N [Example 5-1-297, N-[2-[5-amino-1-[6-(2,6-difluorophenoxy)-4-methylpyridin-3-yl]pyrazole-4-carbonyl]-5-(2,2-difluoroethoxy)-1H-indol-6-yl]-4-fluorobenzenesulfonamide]
8.1 | 130 | 330 | Cc1cc(Oc2c(F)cccc2F)ncc1-n1ncc(C(=O)c2cc3cc(OCC(F)F)c(NS(=O)(=O)C4CCCCC4)cc3[nH]2)c1N [Example 5-1-315, N-[2-[5-amino-1-[6-(2,6-difluorophenoxy)-4-methylpyridin-3-yl]pyrazole-4-carbonyl]-5-(2,2-difluoroethoxy)-1H-indol-6-yl] cyclohexanesulfonamide]
7.7 | 200 | 1300 | Cc1cc(-n2ncc(C(=O)c3cc4cc(OC5CCN(C6CCCC6)CC5)c(-c5ccccc5F)cc4[nH]3)c2N)ccc1Oc1ccccc1F [Example 5-1-308, [5-amino-1-[4-(2-fluorophenoxy)-3-methylphenyl]pyrazol-4-yl]-[5-(1-cyclopentylpiperidin-4-yl)oxy-6-(2-fluorophenyl)-1H-indol-2-yl]methanone]
6.5 | 170 | 610 | COc1ccc(Cl)c(S(=O)(=O)Nc2cc3[nH]c(C(=O)c4cnn(-c5cnc(Oc6c(F)cccc6F)cc5C)c4N)cc3cc2OCC(F)F)c1 [Example 5-1-301, N-[2-[5-amino-1-[6-(2,6-difluorophenoxy)-4-methylpyridin-3-yl]pyrazole-4-carbonyl]-5-(2,2-difluoroethoxy)-1H-indol-6-yl]-2-chloro-5-methoxybenzenesulfonamide]
3.6 | 15 | 48 | Cc1cc(Oc2c(F)cccc2F)ncc1-n1ncc(C(=O)c2cc3cc(OC4CCN(C5CS(=O)(=O)C5)CC4)c(-c4ccccc4F)cc3[nH]2)c1N [Example 5-1-311, [5-amino-1-[6-(2,6-difluorophenoxy)-4-methylpyridin-3-yl]pyrazol-4-yl]-[5-[1-(1,1-dioxothietan-3-yl)piperidin-4-yl]oxy-6-(2-fluorophenyl)-1H-indol-2-yl]methanone]
2.8 | 19 | 73 | Cc1cc2cc(C(=O)c3cnn(-c4cnc(Oc5c(F)cccc5F)cc4C)c3N)[nH]c2cc1N1CC(C)(C)NS1(=O)=O [Example 5-1-313, [5-amino-1-[6-(2,6-difluorophenoxy)-4-methylpyridin-3-yl]pyrazol-4-yl]-[6-(4,4-dimethyl-1,1-dioxo-1,2,5-thiadiazolidin-2-yl)-5-methyl-1H-indol-2-yl]methanone]
